Reference: ChEMBL document CHEMBL6071173, “Machine Learning Accelerates Screening of Osteoclast Differentiation Inhibitors from Natural Products” (2024)
The source made the active and inactive calls. The calls are words filed in the database; no cut-off is given here.

Columns and labels:
RAW 264 [1] = assay: Inhibition of RANKL-induced osteoclastogenesis in mouse RAW 264 cells at 1 nM […] by TRAP staining based assay; format: functional, cell-based
[2] = Inhibition of RANKL-induced osteoclastogenesis in mouse RAW 264 cells at 20 uM […] by TRAP staining based assay relative to control; format: functional; conditions: RAW264.7
RAW 264 [3] = assay: Cytotoxicity against mouse RAW 264 cells assessed as reduction in cell viability at upto 160 uM by MTT assay; format: functional, cell-based

In the case of `CC1=C(/C=C/C(C)=C/C=C/C(C)=C/C(=O)O)C(C)(C)CCC1`, the inhibition (RAW 264 [1]) is reported as “Active”.

With `C/C=C/C=C/C(=O)O[C@H]1CC/C=C/[C@H](O)[C@H](O)[C@@H](CCC)OC1=O` [PINOLIDOXIN] the inhibition at 20 µM [2] was 57% and the Activity (RAW 264 [3]) was “inactive”.
